How the values were obtained:
rabbit poly-IgGs = assay: Microtiter plate chromatography of resins, rabbit poly-IgG; assay type: binding
Procedure: (§1) Resins were assessed in packed mode by microtiter plate chromatography. For each column, approximately 30 μl of resin were transferred to a 384-well filter plate and sealed with appropriate top frits.
(§2) Columns were equilibrated with 6.7 column volumes (cv) of phosphate buffered saline (0.15 M NaCl, 20 mM sodium phosphate, pH 7.3; PBS) prior to injection. Either 3.3 cv of whole IgGs dissolved at 0.75 mg ml^−1, Fab or Fc fragments dissolved at 0.25 mg ml^−1 (all three in PBS) or host cell proteins (HCP) were injected onto columns. Antibody fragments of Bevacizumab (Fab and Fc) were prepared by cleavage of whole IgG with papain protease (3) according to the protocol of the manufacturer. […] Volumes transferred were spun through columns at 50 g for 1-2 min. During injection of samples, acceleration was reduced to 10 g and centrifugation time increased to 5-10 min. Effluent fractions were collected in 384-well plates and concentrations of protein analyzed by Bradford assay. Protein masses mi, mft and me (see below) were calculated as the product of fraction volume and measured protein concentration.
(§3) The fraction of ‘bound’ protein was calculated as the difference between the total mass of protein injected mi and the mass of protein detected in the flowthrough mft, divided by the total mass of protein injected.
The ‘yield’ of protein was calculated as the mass of protein eluted me, divided by the mass of protein injected mi.
(§4) the fraction of ‘bound’ protein and the ‘yield’ of protein were calculated for each resin based on data for whole IgG-antibodies. In the case of Bevacizumab fragments and host cell proteins, only the fraction of ‘bound’ protein is given. Selectivity of resins was calculated from data for Bevacizumab Whole IgG and host cell proteins. Due to limited experimental precision, selectivity was truncated beyond values of 10.

[1] = Alkaline stability in sodium hydroxide, LC-MS; assay type: physicochemical; settings: 25° C., 8 days
Procedure: It was either treated with 0.1 M or 0.5 M sodium hydroxide at 25° C. Hydrolysis was monitored by LC-MS analysis.

Tocilicumab = assay: SPR screening of chemical microarrays, Tocilizumab; assay type: binding, humanized; settings: chemical microarray, immobilized ligand
Source text: (§5) Graffinity has developed high density chemical microarrays comprising thousands of small molecules immobilized onto gold chips. The arrays are constructed using maleimide-thiol coupling chemistry in combination with high density pintool spotting. For the construction, glass plates are microstructured by photolithographical methods in order to define up to 9,216 sensor fields per array. A subsequently applied gold coating provides the basis for the SPR effect and enables the formation of a binary, mixed self assembled monolayer (SAM) of two different thiols. […]
(§6) Surface plasmons are collective oscillations of electrons at a metal surface which can be resonantly excited by polarized light of appropriate wavelength and incidence angle. […] Processes which alter the local refractive index in close proximity to the metal surface (such as antibody binding to the immobilized ligands) can therefore be monitored sensitively. […] While scanning over a range of wavelengths covering the SPR resonance conditions, reflection images are recorded stepwise. […]
(§7) The experimental results of the microarray screening campaigns were analyzed by manual hit selection using in-house developed software routines as well as by an in-depth data analysis by commercially available data mining tools. […]

Bevacizumab Fc fragment = assay: SPR screening of chemical microarrays, Bevacizumab Fc fragment; assay type: binding, humanized; settings: chemical microarray, immobilized ligand
Source text: as §5, §6, §7

full length Bevacizumab = assay: SPR screening of chemical microarrays, full length Bevacizumab; assay type: binding, humanized; settings: chemical microarray, immobilized ligand
Source text: as §5, §6, §7

Bevacizumab Fab fragment = assay: Microtiter plate chromatography of resins, Bevacizumab Fab fragment (bound); assay type: binding, humanized
Procedure: as §1, §2, §3, §4

Bevacizumab = molecular target: T1, Bevacizumab (Homo sapiens, UniProt P01857); assay: Dynamic and equilibrium binding capacity by column chromatography; set-up: species or system humanized; settings: 1 mg ml^−1 Bevacizumab
T1 construct: fused on or other part: humanised anti-VEGF-A VH domain N-terminal of the gamma-1 constant region (engineered, no UniProt entry)
Procedure: Dynamic binding capacities were determined by column chromatography with purified Bevacizumab. Resins were packed into analytical columns of 25 mm length and 3 mm inner diameter. Columns were fed with 1 mg ml^−1 antibody in phosphate-buffered saline (150 mM NaCl, 20 mM phosphate buffer, pH 7.3) at constant flow rate, while the concentration of antibody in effluents was monitored online via absorbance at 280 nm. Antibody was loaded until effluent concentration reached at least 10% of the feed concentration. Dynamic binding capacities were determined at a flow rate of 50 cm h^−1, corresponding to 3 min empty column residence time. Equilibrium capacities were also determined at a flow rate of 50 cm h^−1 by loading until complete breakthrough of antibody. […]
‘Dynamic capacity’ was defined as the amount of antibody that can be injected onto a column at constant flow rate until the effluent concentration reaches 10% of the feed concentration. It was calculated as the time t0.1 after which 10% breakthrough occurred, multiplied by the flow rate F and feed concentration cf.
Equilibrium capacity is defined as the maximum amount of antibody that binds to a column for a given feed stream concentration. It was calculated by evaluation of the following integral
The integral was evaluated numerically. […]

Palivizumab = assay: SPR screening of chemical microarrays, Palivizumab; assay type: binding, humanized; settings: chemical microarray, immobilized ligand
Source text: as §5, §6, §7

COc1ccc(NC(=O)c2cc(-c3ccco3)n(C)n2)cc1C(=O)NCCCN [Ligand L1, 5-[5-(2-Furyl)-1-methylpyrazol-3-yl]carboxamido-2-methoxybenzoic acid N-(3-aminopropyl)amide]
r-poly-IgG Bound (%) (rabbit poly-IgGs): 100% | r-poly-IgG Yield (%) (rabbit poly-IgGs): 100% | binding of rabbit poly-IgGs (rabbit poly-IgGs; microtiter plate chromatography, PBS): efficient binding | degradation (alkaline stability) ([1]; 0.1 M NaOH): no degradation | half-life ([1]; 0.5 M sodium hydroxide solution, 0.5 M NaOH): 12 days | SPR binding to full length Tocilicumab (Tocilicumab): clearly bound | SPR binding to Bevacizumab Fc fragment (Bevacizumab Fc fragment): distinct binding | SPR binding to full length Bevacizumab (full length Bevacizumab): distinct binding | Bevacizumab Fab Bound (%) (Bevacizumab Fab fragment; Bevacizumab Fab fragment): 18% | binding of Bevacizumab Fab-fragment (Bevacizumab Fab fragment; Fab 0.25 mg ml^-1 in PBS): not the Fab-fragment | Dynamic Capacity (Bevacizumab; 50 cm h^−1, 10% breakthrough): 20.2 mg per ml of resin | Equilibrium Capacity (Bevacizumab; 50 cm h^−1, complete breakthrough): 25.7 mg per ml of resin | SPR binding to full length Palivizumab (Palivizumab): clearly bound

From US20130131321A1, “LIGANDS FOR ANTIBODY AND Fc-FUSION PROTEIN PURIFICATION BY AFFINITY CHROMATOGRAPHY” (GRAFFINITY PHARMACEUTICALS GMBH, priority 2010, published 2013)
